In patent US11206830B2, “Herbicidal composition comprising glufosinate or a salt thereof and pyroxasulfone” (BASF SE, priority 2008, dated 2021):
Like-named read-outs stand apart in the source and are kept apart here.

Legend:
Format in all cases: in vivo
[1] = tested on: Abutilon theophrasti (ABUTH); assay: greenhouse post-emergence herbicidal activity on ABUTH; conditions: for inhibition at 5 g/ha: 5 g ai/ha
Excerpt: (§1) For the post-emergence treatment, the test plants were first grown to a height of 3 to 20 cm, depending on the plant habit, and only then treated. Here, the herbicidal compositions were suspended or emulsified in water as distribution medium and sprayed using finely distributing nozzles.
(§2) The respective herbicides B and/or safener were formulated as 10% by weight strength suspension concentrate and introduced to the spray liquor with the amount of solvent system used for applying the active compound. Herbicides A, C and/or safener were used as commercially available formulations and introduced to the spray liquor with the amount of solvent system used for applying the active compound. In the examples, the solvent used was water.
(§3) The test period extended over 21 days. During this time, the plants were tended, and their response to the treatments with active compound was evaluated.
(§4) The evaluation for the damage caused by the chemical compositions was carried out using a scale from 0 to 100%, compared to the untreated control plants. Here, 0 means no damage and 100 means complete destruction of the plants.
(§5) The value E, which is to be expected if the activity of the individual compounds is just additive, was calculated using the method of S. R. Colby (1967) “Calculating synergistic and antagonistic responses of herbicide combinations”, Weeds 15, p. 22 ff. For two component mixtures the value E was calculated by the following formula E=X+Y−(X·Y/100)
(§6) For three component mixtures the value E was calculated by the following formula E=X+Y+Z−(XY+XZ+YZ)/100+(X·YZ/10000) where X=effect in percent using herbicide A at an application rate a; • Y=effect in percent using herbicide B at an application rate b; • Z=effect in percent using herbicide C at an application rate c; • E=expected effect (in %) of A+B at application rates a+b. or • E=expected effect (in %) of A+B+C at application rates a+b+c.
(§7) If the value observed in this manner is higher than the value E calculated according to Colby, a synergistic effect is present.
(§8) Tables 1 to 12 relate to the herbicidal activity of the individual actives and of their combinations in post-emergence application assessed 20 DAT.

[2] = tested on: Chenopodium album (CHEAL); assay: greenhouse post-emergence herbicidal activity on CHEAL
Excerpt: as §1, §2, §3, §4, §5, §6, §7, §8

[3] = tested on: Alopecurus myosuroides (ALOMY); assay: greenhouse post-emergence herbicidal activity on ALOMY
Excerpt: as §1, §2, §3, §4, §5, §6, §7, §8

[4] = tested on: Digitaria sanguinalis (DIGSA); assay: greenhouse post-emergence herbicidal activity on DIGSA
Excerpt: as §1, §2, §3, §4, §5, §6, §7, §8

[5] = tested on: Polygonum convolvulus (POLCO); assay: greenhouse post-emergence herbicidal activity on POLCO
Excerpt: as §1, §2, §3, §4, §5, §6, §7, §8

[6] = tested on: Matricaria inermis (MATIN); assay: greenhouse post-emergence herbicidal activity on MATIN
Excerpt: as §1, §2, §3, §4, §5, §6, §7, §8

Avena fatua (AVEFA) = assay: greenhouse post-emergence herbicidal activity on AVEFA; conditions: 480 h, read-out: % activity 20 DAT
Excerpt: as §1, §2, §3, §4, §5, §6, §7, §8

Galium aparine (GALAP) = assay: greenhouse post-emergence herbicidal activity on GALAP; conditions: for inhibition at 5 g/ha: 5 g ai/ha
Excerpt: as §1, §2, §3, §4, §5, §6, §7, §8

[7] = tested on: Lolium multiflorum (LOLMU); assay: greenhouse post-emergence herbicidal activity on LOLMU; conditions: for inhibition at 5 g/ha: 5 g ai/ha
Excerpt: as §1, §2, §3, §4, §5, §6, §7, §8

[8] = tested on: Amaranthus retroflexus (AMARE); assay: greenhouse post-emergence herbicidal activity on AMARE; conditions: 480 h, solo application, 100 g ai/ha, read-out: % activity 20 DAT
Excerpt: as §1, §2, §3
(§9) The evaluation for the damage caused by the chemical compositions was carried out using a scale from 0 to 100%, compared to the untreated control plants. […]
(§10) The value E, which is to be expected if the activity of the individual compounds is just additive, was calculated using the method of S. R. Colby (1967) “Calculating synergistic and antagonistic responses of herbicide combinations”, Weeds 15, p. […] For two component mixtures the value E was calculated by the following formula E=X+Y−(X·Y/100)
as §6, §7, §8

Setaria viridis (SETVI) = assay: greenhouse post-emergence herbicidal activity on SETVI; conditions: 480 h, solo application, 100 g ai/ha, read-out: % activity 20 DAT
Excerpt: as §1, §2, §3, §9, §10, §6, §7, §8

[9] = Chenopodium album, 480 h, solo application, 6.25 g ai/ha, read-out: % activity 20 DAT
[10] = Alopecurus myosuroides, 480 h, solo application, 6.25 g ai/ha, read-out: % activity 20 DAT
[11] = Digitaria sanguinalis, 480 h, solo application, 6.25 g ai/ha, read-out: % activity 20 DAT
[12] = Abutilon theophrasti, 480 h, solo application, read-out: % activity 20 DAT
[13] = Galium aparine, 480 h, solo application, read-out: % activity 20 DAT
[14] = Lolium multiflorum, 480 h, solo application, read-out: % activity 20 DAT
[15] = Alopecurus myosuroides, 480 h, read-out: % activity 20 DAT, post-emergence, solo application, 6.25 g ai/ha
[16] = Digitaria sanguinalis, 480 h, read-out: % activity 20 DAT
[17] = Fallopia convolvulus, 480 h, read-out: % activity 20 DAT

## CS(=O)(=O)c1cc(C(F)(F)F)ccc1C(=O)c1cnoc1C1CC1 [isoxaflutole]
[1]; Abutilon theophrasti, 480 h, solo application, 6.25 g ai/ha, read-out: % activity 20 DAT
  inhibition at 6.25 g/ha: 55%
[2]; [9]
  inhibition at 6.25 g/ha: 75%
[3]; [10]
  inhibition at 6.25 g/ha: 0%
[4]; [11]
  inhibition at 6.25 g/ha: 15%
[5]; Fallopia convolvulus, 480 h, solo application, 25 g ai/ha, read-out: % activity 20 DAT
  inhibition at 25 g/ha: 45%

## C#CCN1C(=O)COc2cc(F)c(N3C(=O)C4=C(CCCC4)C3=O)cc21 [flumioxazin]
[6]; Matricaria, 480 h, solo application, 6.25 g ai/ha, read-out: % activity 20 DAT
  inhibition at 6.25 g/ha: 65%
[2]; [9]
  inhibition at 6.25 g/ha: 0%
[2]; Chenopodium album, 480 h, solo application, 12.5 g ai/ha, read-out: % activity 20 DAT
  inhibition at 12.5 g/ha: 30%
Avena fatua (AVEFA); solo application, 6.25 g ai/ha
  inhibition at 6.25 g/ha: 35%
[3]; [10]
  inhibition at 6.25 g/ha: 20%
[3]; Alopecurus myosuroides, 480 h, solo application, 12.5 g ai/ha, read-out: % activity 20 DAT
  inhibition at 12.5 g/ha: 20%
Galium aparine (GALAP); Galium aparine, 480 h, solo application, 6.25 g ai/ha, read-out: % activity 20 DAT
  inhibition at 6.25 g/ha: 30%
Galium aparine (GALAP); Galium aparine, 480 h, solo application, 12.5 g ai/ha, read-out: % activity 20 DAT
  inhibition at 12.5 g/ha: 30%
[4]; [11]
  inhibition at 6.25 g/ha: 15%

## Cc1cnc(C2=NC(=O)C(C)(C(C)C)N2)c(C(=O)O)c1 (centres unmarked) [imazapic]
[1]; [12]
  inhibition at 5 g/ha: 60%
[2]; Chenopodium album, 480 h, solo application, 20 g ai/ha, read-out: % activity 20 DAT
  inhibition at 20 g/ha: 40%
[3]; Alopecurus myosuroides, 480 h, solo application, 20 g ai/ha, read-out: % activity 20 DAT
  inhibition at 20 g/ha: 45%
Galium aparine (GALAP); [13]
  inhibition at 5 g/ha: 55%
[4]; Digitaria sanguinalis, 480 h, solo application, 5 g ai/ha, read-out: % activity 20 DAT
  inhibition at 5 g/ha: 50%
[7]; [14]
  inhibition at 5 g/ha: 60%

## COc1c(Cl)ccc(Cl)c1C(=O)O [dicamba]
[1]; Abutilon theophrasti, 480 h, solo application, 50 g ai/ha, read-out: % activity 20 DAT
  inhibition at 50 g/ha: 50%
[6]; Matricaria, 480 h, read-out: % activity 20 DAT, post-emergence, solo application, 25 g ai/ha
  inhibition at 25 g/ha: 45%
[2]; Chenopodium album, 480 h, solo application, 50 g ai/ha, read-out: % activity 20 DAT
  inhibition at 50 g/ha: 50%
[3]; Alopecurus myosuroides, 480 h, solo application, 25 g ai/ha, read-out: % activity 20 DAT
  inhibition at 25 g/ha: 10%
[7]; Lolium multiflorum, 480 h, solo application, 50 g ai/ha, read-out: % activity 20 DAT
  inhibition at 50 g/ha: 0%

## CCNc1nc(Cl)nc(NC(C)C)n1 [atrazin]
[2]; Chenopodium album, 480 h, solo application, 62.5 g ai/ha, read-out: % activity 20 DAT
  inhibition at 62.5 g/ha: 20%
[2]; Chenopodium album, 480 h, solo application, 125 g ai/ha, read-out: % activity 20 DAT
  inhibition at 125 g/ha: 60%
[3]; Alopecurus myosuroides, 480 h, solo application, 250 g ai/ha, read-out: % activity 20 DAT
  inhibition at 250 g/ha: 50%
[4]; Digitaria sanguinalis, 480 h, solo application, 62.5 g ai/ha, read-out: % activity 20 DAT
  inhibition at 62.5 g/ha: 0%

## CCC(CC)Nc1c([N+](=O)[O-])cc(C)c(C)c1[N+](=O)[O-] [pendimethalin]
[6]; Matricaria, 480 h, solo application, 100 g ai/ha, read-out: % activity 20 DAT
  inhibition at 100 g/ha: 0%
[6]; Matricaria, 480 h, solo application, 800 g ai/ha, read-out: % activity 20 DAT
  inhibition at 800 g/ha: 0%
[8]
  inhibition at 100 g/ha: 75%
Setaria viridis (SETVI)
  inhibition at 100 g/ha: 30%
[3]; Alopecurus myosuroides, 480 h, solo application, 400 g ai/ha, read-out: % activity 20 DAT
  inhibition at 400 g/ha: 40%
[7]; Lolium multiflorum, 480 h, solo application, 200 g ai/ha, read-out: % activity 20 DAT
  inhibition at 200 g/ha: 30%

## O=C(Nc1ccc(F)cc1)c1cccc(Oc2cccc(C(F)(F)F)c2)n1 [picolinafen]
[1]; solo application, 6.25 g ai/ha
  % activity 20 DAT: 30%
[1]; solo application, 25 g ai/ha
  % activity 20 DAT: 60%
[6]; solo application, 50 g ai/ha
  % activity 20 DAT: 60%
[2]; solo application, 12.5 g ai/ha
  % activity 20 DAT: 30%
[3]; solo application, 6.25 g ai/ha
  % activity 20 DAT: 0%
[3]; solo application, 25 g ai/ha
  % activity 20 DAT: 0%
Galium aparine (GALAP); solo application, 6.25 g ai/ha
  % activity 20 DAT: 30%
[4]; solo application, 6.25 g ai/ha
  % activity 20 DAT: 30%
[4]; solo application, 12.5 g ai/ha
  % activity 20 DAT: 45%
[7]; solo application, 12.5 g ai/ha
  % activity 20 DAT: 10%
[5]; solo application, 50 g ai/ha
  % activity 20 DAT: 80%

## COCc1cnc(C2=NC(C)(C(C)C)C(=O)N2)c(C(=O)O)c1 (centres unmarked) [imazamox]
[1]; [12]
  inhibition at 5 g/ha: 50%
[6]; Matricaria, 480 h, solo application, 5 g ai/ha, read-out: % activity 20 DAT
  inhibition at 5 g/ha: 25%
[2]; Chenopodium album, 480 h, solo application, 5 g ai/ha, read-out: % activity 20 DAT
  inhibition at 5 g/ha: 15%
[2]; Chenopodium album, 480 h, solo application, 10 g ai/ha, read-out: % activity 20 DAT
  inhibition at 10 g/ha: 30%
[3]; Alopecurus myosuroides, 480 h, solo application, 10 g ai/ha, read-out: % activity 20 DAT
  inhibition at 10 g/ha: 30%
Galium aparine (GALAP); [13]
  inhibition at 5 g/ha: 20%
Galium aparine (GALAP); Galium aparine, 480 h, solo application, 10 g ai/ha, read-out: % activity 20 DAT
  inhibition at 10 g/ha: 30%
[4]; Digitaria sanguinalis, 480 h, solo application, 10 g ai/ha, read-out: % activity 20 DAT
  inhibition at 10 g/ha: 20%
[7]; [14]
  inhibition at 5 g/ha: 40%
[7]; Lolium multiflorum, 480 h, solo application, 10 g ai/ha, read-out: % activity 20 DAT
  inhibition at 10 g/ha: 60%

## C#CCN1C(=O)COc2cc(F)c(-n3c(=O)n(C)c(=S)n(C)c3=O)cc21 [Compound D]
[2]; Chenopodium album, 480 h, read-out: % activity 20 DAT, post-emergence, solo application, 3.13 g ai/ha
  inhibition at 3.13 g/ha: 45%
Avena fatua (AVEFA)
  inhibition at 6.25 g/ha: 75%
[3]; Alopecurus myosuroides, 480 h, read-out: % activity 20 DAT, post-emergence, solo application, 3.13 g ai/ha
  inhibition at 3.13 g/ha: 30%
[3]; [15]
  inhibition at 6.25 g/ha: 40%
Galium aparine (GALAP); Galium aparine, 480 h, read-out: % activity 20 DAT, post-emergence, solo application, 3.13 g ai/ha
  inhibition at 3.13 g/ha: 30%
Galium aparine (GALAP); Galium aparine, 480 h, read-out: % activity 20 DAT, post-emergence, solo application, 6.25 g ai/ha
  inhibition at 6.25 g/ha: 30%
[4]; [16]
  inhibition at 3.13 g/ha: 35%
[7]; Lolium multiflorum, 480 h, read-out: % activity 20 DAT, post-emergence, solo application, 3.13 g ai/ha
  inhibition at 3.13 g/ha: 40%
[5]; [17]
  inhibition at 3.13 g/ha: 95%

## CCc1nc2c(Cl)cc(Cl)c(-c3nn(C)c(OC(F)F)c3Br)c2o1 [Compound B]
[1]; Abutilon theophrasti, 480 h, read-out: % activity 20 DAT, post-emergence, solo application, 6.25 g ai/ha
  inhibition at 6.25 g/ha: 98%
[2]; Chenopodium album, 480 h, read-out: % activity 20 DAT, post-emergence, solo application, 6.25 g ai/ha
  inhibition at 6.25 g/ha: 85%
[3]; [15]
  inhibition at 6.25 g/ha: 20%
[3]; Alopecurus myosuroides, 480 h, read-out: % activity 20 DAT, post-emergence, solo application, 12.5 g ai/ha
  inhibition at 12.5 g/ha: 35%
[4]; [16]
  inhibition at 6.25 g/ha: 50%
[5]; [17]
  inhibition at 6.25 g/ha: 90%
